IC50 and IC (total growth inhibition) data for 22 compounds are collected here from US8975417B2, “Pyrazolopyrrolidine derivatives and their use in the treatment of disease” (Novartis AG, priority 2013, dated 2015).

One assay addresses His-Brd2(60-472) (Homo sapiens (Human), UniProt P25440). Briefly: TR-FRET in-vitro binding assay for BRD2. The settings on record: biochemical. An outline of the steps:
(§1)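 Eight-point dilution series tested against in-house His-BRD2(60-472), BRD3(20-477) or BRD4(44-477) (45 nM in dispensed solution) binding acetyl-histone H4 (AcK5,8,12,16; 60 nM in dispensed solution). Incubation 35 min at 30 °C, pH 7.5 HEPES buffer; detection by TR-FRET using Eu-anti-His6 and streptavidin-allophycocyanin.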
In general terms: In TR-FRET formats the signal depends on donor and acceptor labels being close together.

A further assay has as its target His-Brd3(20-477) (Homo sapiens (Human), UniProt Q15059). Briefly: TR-FRET in-vitro binding assay for BRD3. Particulars: biochemical. The procedure, abridged:
as §1

A further assay relates to K-562 cells. Briefly: Cell growth inhibition assay (CellTiter-Glo), K-562. The format is cell-based, human. The procedure, abridged: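 Dose-response over 3-fold dilutions from 10 μM; 0.1% DMSO control. Endpoint: CellTiter-Glo ATP signal, background-subtracted and day 0-corrected.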
A general note: In ATP-based viability assays light output follows the ATP content of the culture.

Where [1] appears, read: Homo sapiens, K562, read-out: K-562 TGI.

Where two headings read alike, the source gives them in different places.

Chain of His-Brd3(20-477) (Q15059 20-477): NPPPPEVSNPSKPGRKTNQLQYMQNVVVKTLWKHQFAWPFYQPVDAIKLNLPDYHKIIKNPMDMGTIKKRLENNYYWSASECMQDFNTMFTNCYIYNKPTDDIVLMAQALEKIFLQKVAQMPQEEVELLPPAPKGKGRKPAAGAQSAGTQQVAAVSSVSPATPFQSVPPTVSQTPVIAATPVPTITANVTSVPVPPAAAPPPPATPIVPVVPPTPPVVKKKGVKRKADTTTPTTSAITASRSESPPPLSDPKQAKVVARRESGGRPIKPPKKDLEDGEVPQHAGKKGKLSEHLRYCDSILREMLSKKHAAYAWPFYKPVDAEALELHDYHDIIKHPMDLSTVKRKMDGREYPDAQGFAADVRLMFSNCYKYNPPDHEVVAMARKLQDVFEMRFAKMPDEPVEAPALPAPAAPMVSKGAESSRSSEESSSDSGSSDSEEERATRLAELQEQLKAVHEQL
Chain of His-Brd2(60-472) (P25440 60-472): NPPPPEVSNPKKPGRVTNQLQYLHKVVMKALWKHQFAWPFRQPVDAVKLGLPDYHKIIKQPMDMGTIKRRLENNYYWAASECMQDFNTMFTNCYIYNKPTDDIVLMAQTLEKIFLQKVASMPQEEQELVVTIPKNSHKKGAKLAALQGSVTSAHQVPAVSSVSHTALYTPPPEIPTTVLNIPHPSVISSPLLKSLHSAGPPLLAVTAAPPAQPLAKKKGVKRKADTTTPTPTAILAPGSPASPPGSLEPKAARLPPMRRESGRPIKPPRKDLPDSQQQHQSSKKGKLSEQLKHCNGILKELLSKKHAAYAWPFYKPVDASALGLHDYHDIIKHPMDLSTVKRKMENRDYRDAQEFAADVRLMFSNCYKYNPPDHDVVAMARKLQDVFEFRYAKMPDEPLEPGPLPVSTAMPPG

As usually defined, the IC50 is the concentration at which inhibition is half-maximal. As to `COc1ncc(-n2nc(C)c3c2C(=O)N(c2cc(C)c(=O)n(C)c2)C3c2ccc(Cl)cc2)c(OC)n1` (racemic) [Example 52, 4-(4-chlorophenyl)-1-(2,4-dimethoxypyrimidin-5-yl)-5-(1,5-dimethyl-6-oxo-1,6-dihydropyridin-3-yl)-3-methyl-4,5-dihydropyrrolo[3,4-c]pyrazol-6(1H)-one], the IC50 on His-Brd2(60-472) came to 63 nM; on His-Brd3(20-477) it was 69 nM. The IC (total growth inhibition) in the assay on K-562 cells (read-out: K-562 TGI) is greater than 10 µM.

On to `Cc1nn(-c2ccnn2C)c2c1C(c1ccc(Cl)cc1)N(c1cc(C)c(=O)n(C)c1)C2=O` (racemic) [Example 74, 4-(4-chlorophenyl)-5-(1,5-dimethyl-6-oxo-1,6-dihydropyridin-3-yl)-3-methyl-1-(1-methyl-1H-pyrazol-5-yl)-4,5-dihydropyrrolo[3,4-c]pyrazol-6(1H)-one], for which the values for the IC50 at His-Brd2(60-472) and on His-Brd3(20-477) were 71 nM and 91 nM, respectively. The IC (total growth inhibition) in the assay with K-562 cells (read-out: K-562 TGI) is recorded as greater than 10 µM.

Take `Cc1cc(N2C(=O)c3c(cnn3C3CC3)C2c2ccc(Cl)cc2)cn(C)c1=O` (centres unmarked) [Example 34, 4-(4-chlorophenyl)-1-cyclopropyl-5-(1,5-dimethyl-6-oxo-1,6-dihydropyridin-3-yl)-4,5-dihydropyrrolo[3,4-c]pyrazol-6(1H)-one]: the IC50 at His-Brd2(60-472) was 95 nM; on His-Brd3(20-477) it was 110 nM. Besides, the IC (total growth inhibition) in the assay on K-562 cells (setting [1]) was greater than 10 µM.

Take `Cn1cc(N2C(=O)c3c(c(C(F)(F)F)nn3C3CC3)C2c2ccc(Cl)cc2)cc(Cl)c1=O` (centres unmarked) [Example 44, 5-(5-chloro-1-methyl-6-oxo-1,6-dihydropyridin-3-yl)-4-(4-chlorophenyl)-1-cyclopropyl-3-(trifluoromethyl)-4,5-dihydropyrrolo[3,4-c]pyrazol-6(1H)-one]: the results for the IC50 at His-Brd2(60-472) and at His-Brd3(20-477) were 170 nM and 280 nM, respectively. Further, the IC (total growth inhibition) in the assay on K-562 cells (setting [1]) is greater than 10 µM.

Take `Cc1nn(C2CC2)c2c1[C@@H](c1ccc(Cl)cc1)N(c1cc(C)c(=O)n(C)c1)C2=O` [Example 49, (R)-4-(4-chlorophenyl)-1-cyclopropyl-5-(1,5-dimethyl-6-oxo-1,6-dihydropyridin-3-yl)-3-methyl-4,5-dihydropyrrolo[3,4-c]pyrazol-6(1H)-one]: the IC50 came to 15 nM on His-Brd2(60-472) and 19 nM on His-Brd3(20-477). In addition, the IC (total growth inhibition) with K-562 cells (setting [1]) is greater than 10 µM.

Regarding `Cc1nn(C2CC2)c2c1[C@@H](c1ccc(Cl)cc1)N(c1cc(Cl)c(=O)n(C)c1)C2=O` [Example 51, (R)-5-(5-chloro-1-methyl-6-oxo-1,6-dihydropyridin-3-yl)-4-(4-chlorophenyl)-1-cyclopropyl-3-methyl-4,5-dihydropyrrolo[3,4-c]pyrazol-6(1H)-one], the IC50 at His-Brd2(60-472) was 17 nM; at His-Brd3(20-477) it was 21 nM. For the same compound, in the assay with K-562 cells (setting [1]), the IC (total growth inhibition) was greater than 10 µM.

In the case of `COc1ncc(-n2nc3c(c2C(C)C)C(c2ccc(Cl)cc2)N(c2ccc4onc(C)c4c2)C3=O)c(OC)n1` (centres unmarked) [Example 54, 4-(4-chlorophenyl)-2-(2,4-dimethoxypyrimidin-5-yl)-3-isopropyl-5-(3-methylbenzo-[d]isoxazol-5-yl)-4,5-dihydropyrrolo[3,4-c]pyrazol-6(2H)-one], the IC50 at His-Brd2(60-472) was 480 nM; on His-Brd3(20-477), 300 nM. For the same compound, the IC (total growth inhibition) in the assay with K-562 cells (setting [1]) was greater than 10 µM.

Turning to `COc1ncc(-n2nc3c(c2C)C(c2ccc(Cl)cc2)N(c2cc(Cl)c(=O)n(C)c2)C3=O)c(OC)n1` (centres unmarked) [Example 55, 5-(5-chloro-1-methyl-6-oxo-1,6-dihydropyridin-3-yl)-4-(4-chlorophenyl)-2-(2,4-dimethoxypyrimidin-5-yl)-3-methyl-4,5-dihydropyrrolo[3,4-c]pyrazol-6(2H)-one], the IC50 on His-Brd2(60-472) was determined as 98 nM; at His-Brd3(20-477) it was 79 nM. In the assay on K-562 cells (setting [1]), the IC (total growth inhibition) was greater than 10 µM.

As to `CCc1nn(C2CC2)c2c1C(c1ccc(Cl)cc1)N(c1cc(C)c3nnc(C)n3c1)C2=O` (centres unmarked) [Example 70, 4-(4-chlorophenyl)-1-cyclopropyl-5-(3,8-dimethyl-[1,2,4]triazolo[4,3-a]pyridin-6-yl)-3-ethyl-4,5-dihydropyrrolo[3,4-c]pyrazol-6(1H)-one], the IC50 came to 31 nM at His-Brd2(60-472) and 29 nM at His-Brd3(20-477). For the same compound, the IC (total growth inhibition) in the assay on K-562 cells (setting [1]) is greater than 10 µM.

Take `COc1ncccc1-n1nc(C)c2c1C(=O)N(c1cc(Cl)c(=O)n(C)c1)C2c1ccc(Cl)cc1` (centres unmarked) [Example 72, 5-(5-chloro-1-methyl-6-oxo-1,6-dihydropyridin-3-yl)-4-(4-chlorophenyl)-1-(2-methoxypyridin-3-yl)-3-methyl-4,5-dihydropyrrolo[3,4-c]pyrazol-6(1H)-one]: the IC50 on His-Brd2(60-472) turned out to be 60 nM; on His-Brd3(20-477), 73 nM. The IC (total growth inhibition) with K-562 cells (setting [1]) is greater than 10 µM.

Turning to `Cc1cc(N2C(=O)c3nn(C)c(O)c3C2c2ccc(Cl)cc2)cn(C)c1=O` (centres unmarked) [Example 73, 4-(4-chlorophenyl)-5-(1,5-dimethyl-6-oxo-1,6-dihydropyridin-3-yl)-3-hydroxy-2-methyl-4,5-dihydropyrrolo[3,4-c]pyrazol-6(2H)-one], the IC50 on His-Brd2(60-472) and on His-Brd3(20-477) was 200 nM each time. Also, the IC (total growth inhibition) with K-562 cells (setting [1]) is greater than 10 µM.

Consider `CCOc1c2c(nn1C)C(=O)N(c1cc(C)c(=O)n(C)c1)C2c1ccc(Cl)cc1` (centres unmarked) [Example 76, 4-(4-chlorophenyl)-5-(1,5-dimethyl-6-oxo-1,6-dihydropyridin-3-yl)-3-ethoxy-2-methyl-4,5-dihydropyrrolo[3,4-c]pyrazol-6(2H)-one], for which the concentration for half-maximal inhibition (IC50) at His-Brd2(60-472) and on His-Brd3(20-477) was 100 nM each time. For the same compound, the IC (total growth inhibition) with K-562 cells (setting [1]) is greater than 10 µM.

On to `COc1c2c(nn1C)C(=O)N(c1cc(C)c(=O)n(C)c1)C2c1ccc(Cl)cc1` (centres unmarked) [Example 77, 4-(4-chlorophenyl)-5-(1,5-dimethyl-6-oxo-1,6-dihydropyridin-3-yl)-3-methoxy-2-methyl-4,5-dihydropyrrolo[3,4-c]pyrazol-6(2H)-one], for which, in the assay on K-562 cells (setting [1]), the IC (total growth inhibition) is greater than 10 µM.

Regarding `CCc1nn(CCO)c2c1C(c1ccc(Cl)cc1)N(c1cc(C)c(=O)n(C)c1)C2=O` (centres unmarked) [Example 78, 4-(4-chlorophenyl)-5-(1,5-dimethyl-6-oxo-1,6-dihydropyridin-3-yl)-3-ethyl-1-(2-hydroxyethyl)-4,5-dihydropyrrolo[3,4-c]pyrazol-6(1H)-one], the IC50 was found to be 79 nM at His-Brd2(60-472) and 57 nM at His-Brd3(20-477). Besides, in the assay on K-562 cells (setting [1]), the IC (total growth inhibition) was greater than 10 µM.

As for `CCc1nn(CCO)c2c1C(c1ccc(Cl)cc1)N(c1cc(C)c3onc(C)c3c1)C2=O` (centres unmarked) [Example 79, 4-(4-chlorophenyl)-5-(3,7-dimethylbenzo[d]isoxazol-5-yl)-3-ethyl-1-(2-hydroxyethyl)-4,5-dihydropyrrolo[3,4-c]pyrazol-6(1H)-one], the results for the IC50 on His-Brd2(60-472) and on His-Brd3(20-477) were 110 nM and 86 nM, respectively. The IC (total growth inhibition) with K-562 cells (setting [1]) is greater than 10 µM.

For `CCc1c2c(nn1CCO)C(=O)N(c1cc(C)c3onc(C)c3c1)C2c1ccc(Cl)cc1` (centres unmarked) [Example 80, 4-(4-chlorophenyl)-5-(3,7-dimethylbenzo[d]isoxazol-5-yl)-3-ethyl-2-(2-hydroxyethyl)-4,5-dihydropyrrolo[3,4-c]pyrazol-6(2H)-one], the half-inhibitory concentration (IC50) at His-Brd2(60-472) worked out at 59 nM; on His-Brd3(20-477), 36 nM. For the same compound, in the assay on K-562 cells (setting [1]), the IC (total growth inhibition) was greater than 10 µM.

Take `Cc1ncccc1-n1nc2c(c1C)C(c1ccc(Cl)cc1)N(c1cc(C)c(=O)n(C)c1)C2=O` (centres unmarked) [Example 81, 4-(4-chlorophenyl)-5-(1,5-dimethyl-6-oxo-1,6-dihydropyridin-3-yl)-3-methyl-2-(2-methylpyridin-3-yl)-4,5-dihydropyrrolo[3,4-c]pyrazol-6(2H)-one]: the concentration for half-maximal inhibition (IC50) on His-Brd2(60-472) was 120 nM; at His-Brd3(20-477) it was 97 nM. In addition, the IC (total growth inhibition) in the assay on K-562 cells (setting [1]) is greater than 10 µM.

As for `Cc1ncccc1-n1nc(C)c2c1C(=O)N(c1cc(C)c(=O)n(C)c1)C2c1ccc(Cl)cc1` (centres unmarked) [Example 82, 4-(4-chlorophenyl)-5-(1,5-dimethyl-6-oxo-1,6-dihydropyridin-3-yl)-3-methyl-1-(2-methylpyridin-3-yl)-4,5-dihydropyrrolo[3,4-c]pyrazol-6(1H)-one], the results for the IC50 on His-Brd2(60-472) and on His-Brd3(20-477) were 97 nM and 96 nM, respectively. Further, in the assay on K-562 cells (setting [1]), the IC (total growth inhibition) was greater than 10 µM.

As to `Cc1nn(-c2cncn2C)c2c1C(c1ccc(Cl)cc1)N(c1cc(C)c(=O)n(C)c1)C2=O` (centres unmarked) [Example 83, 4-(4-chlorophenyl)-5-(1,5-dimethyl-6-oxo-1,6-dihydropyridin-3-yl)-3-methyl-1-(1-methyl-1H-imidazol-5-yl)-4,5-dihydropyrrolo[3,4-c]pyrazol-6(1H)-one], the IC50 at His-Brd2(60-472) worked out at 120 nM; at His-Brd3(20-477), 97 nM. Also, the IC (total growth inhibition) in the assay with K-562 cells (setting [1]) was greater than 10 µM.

Turning to `Cc1nn(C2CC2)c2c1[C@@H](c1ccc(Cl)cc1)N(c1cc(C)c3nnc(C)n3n1)C2=O` [Example 122, (R)-4-(4-chlorophenyl)-1-cyclopropyl-5-(3,8-dimethyl-[1,2,4]triazolo[4,3-b]-pyridazin-6-yl)-3-methyl-4,5-dihydropyrrolo[3,4-c]pyrazol-6(1H)-one], the IC (total growth inhibition) with K-562 cells (setting [1]) was greater than 10 µM.

For the compound `CC(=O)Nc1cc(N2C(=O)c3c(c(C)nn3C3CC3)C2c2ccc(Cl)cc2)nn2c(C)nnc12` (centres unmarked) [Example 126, N-(6-(4-(4-chlorophenyl)-1-cyclopropyl-3-methyl-6-oxopyrrolo[3,4-c]pyrazol-5-(1H,4H,6H)-yl)-3-methyl-[1,2,4]triazolo[4,3-b]pyridazin-8-yl)acetamide], on His-Brd3(20-477), the IC50 is greater than 37000 nM. In addition, in the assay on K-562 cells (setting [1]), the IC (total growth inhibition) is greater than 10 µM.

Turning to `COCc1nn(C2CC2)c2c1C(c1ccc(Cl)cc1)N(c1cc(C)c3nnc(C)n3c1)C2=O` (centres unmarked) [Example 130, 4-(4-chlorophenyl)-1-cyclopropyl-5-(3,8-dimethyl-[1,2,4]triazolo[4,3-a]pyridin-6-yl)-3-(methoxymethyl)-4,5-dihydropyrrolo[3,4-c]pyrazol-6(1H)-one], the IC (total growth inhibition) with K-562 cells (setting [1]) is greater than 10 µM.
